# In patent US9895328B2, “Calcium formate as a supplement to prevent neural tube defects” (BOARD OF REGENTS, THE UNIVERSITY OF TEXAS SYSTEM, priority 2013, dated 2018):
# Like-named read-outs stand apart in the source and are kept apart here.
# Experiments:
# [1] = tested on: Mthfd1l^z/z embryos; assay: Maternal supplementation with sodium formate, Mthfd1l^z/+ matings; format: in vivo, mouse
# Procedure: Maternal Supplementation with Sodium Formate.
# Because deletion of Mthfd1l is expected to result in loss of mitochondrial formate production, experiments were conducted to determine if maternal formate supplementation would improve development of Mthfd1l^z/z embryos. Pregnant dams were given ad libitum access to water containing sodium formate to achieve a calculated dose of 5000 or 7500 mg sodium formate/kg/day; controls were given water without formate. […] When dams were supplemented with 5000 mg/kg/day sodium formate, 4 Mthfd1l^+/+, 14 Mthfd1l^z/+, and 8 Mthfd1l^z/z embryos were obtained from 3 litters between E15.5-18.5. […] Next, the morphology of E10.5-E15.5 embryos from dams supplemented with 7500 mg/kg/day sodium formate was examined, obtaining 10 Mthfd1l^+/+ embryos, 31 Mthfd1l^z/+ embryos and 14 Mthfd1l^z/z embryos from 6 litters, again conforming to the expected Mendelian ratio (p=0.48). […] Importantly, 6 of the 14 Mthfd1l^z/z embryos were dissected from dams at E13.5 or E15.5, whereas no surviving Mthfd1l^z/z embryos were observed after E12.5 from unsupplemented dams. While supplemented versus non-supplemented embryos were not compared after E12.5 due to lethality of the unsupplemented embryos, formate supplementation partially rescued the growth defect in Mthfd1l^z/z embryos (FIGS. 5A, 5B). […] Supplementation had no significant effect on crown-rump length of wild-type embryos (5.9±0.2 mm).
# [2] = tested on: Mthfd1l^z/z embryos; details: for Crown-rump length: E15.5
# Source text: Mice. All protocols used within this study were approved by the Institutional Animal Care and Use Committee of The University of Texas at Austin and conform to the National Institutes of Health Guide for the Care and Use of Laboratory Animals. All mice were maintained on a C57Bl/6 genetic background. Mice harboring a floxed conditional knockout cassette between exons 4 and 6 of Mthfd1l were obtained from the Wellcome Trust Sanger Institute (EUCOMM ID 37226). Mice carrying the floxed Mthfd1l allele were mated to mice expressing Cre recombinase under control of the E2a promoter (E2a-Cre) (Lakso M, et al. (1996) Proc. Natl. Acad. Sci. U.S.A 93:5860-5865) to generate heterozygous Mthfd1l^z/+ embryos lacking exon 5 and the neomycin resistance cassette (FIG. 2A). All mice were given ad libitum access to water and standard mouse chow (LabDiet 5K67).
# Maternal Supplementation with Calcium Formate. Mthfd1l^z/+ matings were set up in a cage equipped with a water bottle containing 0.0096M, 0.019M, 0.056M or 0.096M calcium formate. The females had access to the supplemented water at least one day before observation of the plug. These concentrations were calculated to deliver 250, 500, 1500 or 2500 mg calcium formate/kg/day, respectively, based on an average water intake of 5 mL per day for a 25 g C57BL/6 mouse (Green EL ed (1966) Biology of the Laboratory Mouse (Dover Publications, Inc., New York), 2nd Ed, p 706). The effect of formate supplementation was analyzed by a two-tailed T-test for crown-rump length
# Pregnant dams were administered calculated doses of 250-2500 mg/kg/day.
# [3] = dams 5000 mg/kg/day sodium formate in water, 3 litters, E15.5-18.5, distribution vs Mendelian p=0.50
# [4] = dams 7500 mg/kg/day sodium formate, 6 litters, E10.5-E15.5, vs Mendelian p=0.48
# [5] = embryos lacking Mthfd1l, maternal supplementation
# [6] = 250 mg/kg, of 6 Mthfd1l^z/z embryos
# [7] = 250 mg/kg, of 6 Mthfd1l^z/z embryos (Table 2)
# [8] = 250 mg/kg, of 6 Mthfd1l^z/z embryos (Table 3)
# [9] = 500 mg/kg, of 11 Mthfd1l^z/z embryos
# [10] = 500 mg/kg, of 11 Mthfd1l^z/z embryos (Table 2)
# [11] = 500 mg/kg, of 11 Mthfd1l^z/z embryos (Table 3)
# [12] = 1500 mg/kg, Mthfd1l^z/z embryos
# [13] = 1500 mg/kg, of 13 Mthfd1l^z/z embryos
# [14] = 1500 mg/kg, of 13 Mthfd1l^z/z embryos (Table 2)
# [15] = 1500 mg/kg, of 13 Mthfd1l^z/z embryos (Table 3)
# [16] = 2500 mg/kg, Mthfd1l^z/z embryos
# [17] = 2500 mg/kg, of 15 Mthfd1l^z/z embryos
# [18] = 2500 mg/kg, of 15 Mthfd1l^z/z embryos (Table 2)
# [19] = 2500 mg/kg, of 15 Mthfd1l^z/z embryos (Table 3)
# [20] = 3500 mg/kg, Mthfd1l^z/z embryos
# [21] = 3500 mg/kg, of 10 Mthfd1l^z/z embryos
# [22] = 3500 mg/kg, of 10 Mthfd1l^z/z embryos (Table 2)
# [23] = 3500 mg/kg, of 10 Mthfd1l^z/z embryos (Table 3)
structure (smiles),measurement,setting,value
O=C[O-].[Na+] [sodium formate],"growth of embryos (words, FIG. 5)","[1]; 7500 mg sodium formate/kg/day, Mthfd1l^z/z embryos at E11.5 vs unsupplemented dams",improved growth
same,number of Mthfd1l^z/z embryos with exencephaly,"[1]; 7500 mg/kg/day sodium formate, of 14 Mthfd1l^z/z embryos",3
same,number of Mthfd1l^z/z embryos dissected at E13.5 or E15.5 (survival past E12.5),"[1]; 7500 mg/kg/day sodium formate, of 14 Mthfd1l^z/z embryos, none survive after E12.5 unsupplemented",6
same,number of Mthfd1l^z/z embryos with normal neural tube closure,"[1]; 7500 mg/kg/day sodium formate, of 14 Mthfd1l^z/z embryos, p=0.028 vs unsupplemented nulls",11
same,number of Mthfd1l^+/+ embryos obtained,[1]; [3],4
same,number of Mthfd1l^z/+ embryos obtained,[1]; [3],14
same,number of Mthfd1l^z/z embryos obtained,"[1]; dams 5000 mg/kg/day sodium formate in water, 3 litters, E15.5-18.5, distribution vs Mendelian p=0.50, 0 from unsupplemented dams",8
same,number of Mthfd1l^+/+ embryos obtained,[1]; [4],10
same,number of Mthfd1l^z/+ embryos obtained,[1]; [4],31
same,number of Mthfd1l^z/z embryos obtained,[1]; [4],14
same,growth defect,[1]; [5],partially rescue the growth defect
same,incidence of NTDs,[1]; [5],decrease the incidence of NTDs
same,Crown-rump length,"[1]; formate supplemented Mthfd1l^z/z E11.5 embryos, p<0.01 vs unsupplemented (3.6±0.3)",5.0±0.1 mm
same,Crown-rump length,"[1]; wild-type embryos, supplementation had no significant effect",5.9±0.2 mm
O=C[O-].O=C[O-].[Ca+2] [calcium formate],"NTD, phenotype as a percentage","[2]; 250 mg/kg, Mthfd1l^z/z embryos",0.1667 percentage
same,"no defect observed, phenotype as a percentage","[2]; 250 mg/kg, Mthfd1l^z/z embryos",0 percentage
same,"orofacial defect and NTD, phenotype as a percentage","[2]; 250 mg/kg, Mthfd1l^z/z embryos",0.1667 percentage
same,"orofacial defect, phenotype as a percentage","[2]; 250 mg/kg, Mthfd1l^z/z embryos",0.6667 percentage
same,no defect observed (number of embryos),[2]; [6],0
same,orofacial defect and NTD (number of embryos),[2]; [6],1
same,number with NTD,[2]; [7],2
same,number with facial defect,[2]; [7],4
same,NTD (number of embryos),[2]; [8],1
same,orofacial defect (number of embryos),[2]; [8],4
same,"NTD, phenotype as a percentage","[2]; 500 mg/kg, Mthfd1l^z/z embryos",0 percentage
same,"no defect observed, phenotype as a percentage","[2]; 500 mg/kg, Mthfd1l^z/z embryos",0.2727 percentage
same,"orofacial defect and NTD, phenotype as a percentage","[2]; 500 mg/kg, Mthfd1l^z/z embryos",0 percentage
same,"orofacial defect, phenotype as a percentage","[2]; 500 mg/kg, Mthfd1l^z/z embryos",0.7273 percentage
same,no defect observed (number of embryos),[2]; [9],3
same,orofacial defect and NTD (number of embryos),[2]; [9],0
same,number with NTD,[2]; [10],0
same,number with facial defect,[2]; [10],8
same,NTD (number of embryos),[2]; [11],0
same,orofacial defect (number of embryos),[2]; [11],8
same,"NTD, phenotype as a percentage",[2]; [12],0.07692 percentage
same,"no defect observed, phenotype as a percentage",[2]; [12],0.6154 percentage
same,"orofacial defect and NTD, phenotype as a percentage",[2]; [12],0 percentage
same,"orofacial defect, phenotype as a percentage",[2]; [12],0.3077 percentage
same,no defect observed (number of embryos),[2]; [13],8
same,orofacial defect and NTD (number of embryos),[2]; [13],0
same,number with NTD,[2]; [14],1
same,number with facial defect,[2]; [14],4
same,NTD (number of embryos),[2]; [15],1
same,orofacial defect (number of embryos),[2]; [15],4
same,"NTD, phenotype as a percentage",[2]; [16],0.3333 percentage
same,"no defect observed, phenotype as a percentage",[2]; [16],0.6667 percentage
same,"orofacial defect and NTD, phenotype as a percentage",[2]; [16],0 percentage
same,"orofacial defect, phenotype as a percentage",[2]; [16],0 percentage
same,no defect observed (number of embryos),[2]; [17],10
same,orofacial defect and NTD (number of embryos),[2]; [17],0
same,number with NTD,[2]; [18],5
same,number with facial defect,[2]; [18],0
same,NTD (number of embryos),[2]; [19],5
same,orofacial defect (number of embryos),[2]; [19],0
same,"NTD, phenotype as a percentage",[2]; [20],0.1 percentage
same,"no defect observed, phenotype as a percentage",[2]; [20],0.6 percentage
same,"orofacial defect and NTD, phenotype as a percentage",[2]; [20],0 percentage
same,"orofacial defect, phenotype as a percentage",[2]; [20],0.3 percentage
same,no defect observed (number of embryos),[2]; [21],6
same,orofacial defect and NTD (number of embryos),[2]; [21],0
same,number with NTD,[2]; [22],1
same,number with facial defect,[2]; [22],3
same,NTD (number of embryos),[2]; [23],1
same,orofacial defect (number of embryos),[2]; [23],3
same,growth of Mthfd1l^z/z embryos with increasing maternal intake,"[2]; 250-2500 mg/kg/day, embryos dissected at E15.5",dose-response effect
same,Crown-rump length,"[2]; Mthfd1l^+/+ embryos, 250 mg/kg calcium formate to dams",1.39 + 0.1 cm
same,Crown-rump length,"[2]; Mthfd1l^+/+ embryos, 500 mg/kg calcium formate to dams",1.32 + 0.17 cm
same,Crown-rump length,"[2]; Mthfd1l^+/+ embryos, 1500 mg/kg calcium formate to dams",1.46 + 0.2 cm
same,Crown-rump length,"[2]; Mthfd1l^+/+ embryos, 2500 mg/kg calcium formate to dams",1.43 + 0.07 cm
same,Crown-rump length,"[2]; Mthfd1l^+/+ embryos, 3500 mg/kg calcium formate to dams",1.34 + 0.2 cm
same,Crown-rump length,"[2]; Mthfd1l^z/+ embryos, 250 mg/kg calcium formate to dams",1.38 + 0.1 cm
same,Crown-rump length,"[2]; Mthfd1l^z/+ embryos, 500 mg/kg calcium formate to dams",1.36 + 0.21 cm
same,Crown-rump length,"[2]; Mthfd1l^z/+ embryos, 1500 mg/kg calcium formate to dams",1.46 + 0.1 cm
same,Crown-rump length,"[2]; Mthfd1l^z/+ embryos, 2500 mg/kg calcium formate to dams",1.39 + 0.09 cm
same,Crown-rump length,"[2]; Mthfd1l^z/+ embryos, 3500 mg/kg calcium formate to dams",1.33 + 0.1 cm
same,Crown-rump length,"[2]; Mthfd1l^z/z embryos, 250 mg/kg calcium formate to dams",1.05 ± 0.1 cm
same,Crown-rump length,"[2]; Mthfd1l^z/z embryos, 500 mg/kg calcium formate to dams",1.03 ± 0.06 cm
same,Crown-rump length,"[2]; Mthfd1l^z/z embryos, 1500 mg/kg calcium formate to dams",1.17 ± 0.13 cm
same,Crown-rump length,"[2]; Mthfd1l^z/z embryos, 2500 mg/kg calcium formate to dams",1.20 ± 0.04 cm
same,Crown-rump length,"[2]; Mthfd1l^z/z embryos, 3500 mg/kg calcium formate to dams",1.1 ± 0.2 cm
same,NTD and orofacial defect phenotypes,"[2]; Table 3 and FIG. 6, mouse model",improves NTD and orofacial defect phenotypes in a dose-dependent manner
